From patent US20240197869A1, “HYPERACTIVATORS OF MAMMALIAN DENDRITIC CELLS” (Corner Therapeutics, Inc., priority 2021, published 2024)
Entries after “also recorded” stand apart in the source; their conditions may differ. Read-outs that look alike come from different tables or passages of the source.

Experiments:
[1] = tested on: murine, FLT3L-differentiated cDC1 and cDC2 cells; assay: Flow cytometry of surface markers on murine cDC1 and cDC2; assay type: cell-based, mouse
Description: Murine FLT3L-differentiated, bone marrow-derived DC (BMDC) generation. Leg femur and tibia were removed from mice, cut with scissors and flushed into sterile tubes. Bone marrow suspension was treated with ACK for 1 minute, then passed through a 40 um cell strainer. Cells were counted and resuspended in media consisting of complete IMDM containing 10% FBS, penicillin and streptomycin, and supplements of L-glutamine and sodium pyruvate (I10). Cells were then plated at 5E6 bone marrow cells per well in a P12 plate. Recombinant mouse FLT3L (Miltenyi) was added to cultures at 200 ng/mL. Differentiated cells were used for subsequent assays on day 9. The efficiency of differentiation was monitored by flow cytometry using BD Symphony A3, and CD11c+MHC-II+ cells were routinely above 80% of living cells. For each experiment, five mice were used to collect BM and to generate DCs.
Murine FLT3L-differentiated BMDC (FLT3L-BMDC) hyperactivation. BMDCs were washed with PBS and re-plated in FLT3L-containing 110 at a concentration of 1.5×10^5 cells/well. Stimuli were added to cultures at indicated concentrations for a final volume of 200 uL/well. Twenty-four hours post-stimulation, cell culture supernatant was collected after centrifugation and stored at −20° C. to measure cytokine secretion. IL-1b, IL-6, IL-12p40, and TNF-alpha ELISA were performed using eBioscience Ready-SET-Go! (now ThermoFisher) ELISA kits according to the manufacturer's protocols. Cell viability was measured using Promega's Cell Titer-Glo reagent kits.
Flow cytometry. After FcR blockade, treated FLT3L-BMDCs were washed and stained in PBS with Live Dead Fixable dye (ThermoFisher) for 20 minutes at 4° C. Cells were then washed again and stained for 20 minutes at 4° C. in MACS buffer (PBS with 1% FCS and 2 mM EDTA) containing the following fluorescently conjugated antibodies purchased from BioLegend: anti-CD11c, anti-I-A/I-E, anti-H-2Kb, anti-SIRPa, anti-CD24, anti-CD40, anti-CD45R, anti-CXCL16 and anti-CCR7. Data were acquired on a BD FACS Symphony (Becton-Dickenson). Data were analyzed using FlowJo software (Tree Star). […]

[2] = tested on: human monocyte-derived dendritic cells (moDCs); assay: PAMP screen: IL-1β secretion by human moDCs with PRR agonist and 22:0 Lyso PC; assay type: cell-based; conditions: No PAMP, 20 μM 22:0 Lyso PC alone, human moDCs
Description: (§1) Pathogen-Associated Molecular Pattern (PAMP) Screen. Innate immune signaling pathway agonists were purchased from Invivogen. Lyophilized stocks were reconstituted and stored according to manufacturer's instructions and at recommended concentrations. […] Innate immune signaling agonists were diluted in R10 media to the manufacturer's recommended working concentration and then added onto cells. 22:0 Lyso PC was then reconstituted from a lyophilized stock in R10 and then further diluted. The lipid was added onto cells at a final concentration of 20 μM. Cells were incubated for 2 days, then cultures were collected for endpoint analyses.
Quantification of IL-1beta Secretion. IL-1beta secretion was assessed using the ELISA MAX Deluxe Set Human IL-1beta kit (Biolegend). ELISAs were performed according to manufacturer's instructions with the following modifications: i) total sample volume for incubation was reduced from […] the top standard was prepared at […], with two-fold dilutions to […]; and iii) sample incubation was completed overnight at 4 C on an orbital shaker. […] To determine IL-1beta concentration in supernatants, sample IL-1beta concentrations were interpolated using a standard curve via 4PL analysis on GraphPad Prism 9 (GraphPad Software). The interpolated results of samples were then adjusted for any dilutions made to the supernatant.

[3] = tested on: canine peripheral blood mononuclear cells (PBMCs); assay: IL-1β secretion by canine PBMCs (ELISA); assay type: cell-based; conditions: lipid 82.5 μM combined with R848 1 μg/mL, 2 days
Description: Isolation of PBMCs from Whole Blood. PBMCs were isolated from whole blood using density gradient centrifugation with Ficoll-Paque PLUS (Cytivia). Whole blood was diluted 1:1 with PBS, layered on top of Ficoll-Paque PLUS and centrifuged at 1000×g for 30 minutes at room temperature. PBMCs were collected, washed twice in PBS, and incubated with Ack lysis buffer (Lonza) to remove any remaining red blood cells.
Cell Culture and Stimulation. […] Cells were plated at 1×10^5 (canine cells) or 1×10^6 (human cells) per well in 96-well flat bottom tissue culture plates. Lyophilized Vaccigrade R848 (Invivogen) was reconstituted and diluted according to manufacturer's recommendations and added to cells at a final concentration of 1 μg/mL.
Quantification of Cytokine Secretion. IL-1β secretion from human PBMCs was assessed using one of the following kits: ELISA MAX Deluxe Set Human IL-1β kit (Biolegend), Invitrogen Human IL-1β kit, or the Lumit™ Human IL-1β Immunoassay (Promega). IFNγ secretion from human PBMCs was assessed using the ELISA MAX Deluxe Set Human IFNγ (Biolegend) and TNFα secretion from human PBMCs was assessed using the Human TNFα Uncoated ELISA kit (Invitrogen). […] IL-1β secretion from canine PBMCs was assessed using the Canine IL-1β/IL-1F2 DuoSet ELISA (R&D) according to manufacturer's instructions with the following modifications: i) total sample+buffer volume for incubation was reduced from 100 μL to 50 μL; ii) sample incubation was completed overnight at 4° C. on an orbital shaker. For all ELISAs, absorbance was measured at 450 nm, with a 570 nm correction, using a Spectramax M5e plate reader (Molecular Devices). For Lumit™ assays, luminescence was measured on all wavelengths using a Spectramax M5e plate reader (Molecular Devices) with an integration time of 500 ms. […]

[4] = PAMP screen: viability of human moDCs with PRR agonist and 22:0 Lyso PC; assay type: cell-based; conditions: human, human monocyte-derived dendritic cells (moDCs), No PAMP, 20 μM 22:0 Lyso PC alone, human moDCs, read-out: Relative Viability (%) ± SD
Description: as §1
Quantification of Cell Viability.

[5] = tested on: human monocyte-derived dendritic cells (moDCs); assay: Lipid titration: viability of human moDCs (CellTiter-Glo)
Description: Lipid Titration. After 6 days of differentiation into moDC, cells were collected and counted. Cells were replated at 100,000 cells/well in R10 media in 96-well flat bottom tissue culture-treated plates. LPS, serotype 055:B5 (Enzo Life Sciences) was added to a final concentration of 1 μg/mL in each well. After the addition of LPS, lipids were prepared. […] After two days of culture, cell cultures were used for endpoint analyses.
Endpoint Analyses. After culturing moDCs with PAMPs and DAMPs for two days, supernatant and cell samples were collected for analysis. Cells in culture were pelleted by centrifugation at 400×g for 5 min.
Quantification of Cell Viability. Cell viability was assessed by quantifying the presence of ATP as an indicator of metabolically active cells using the CellTiter-Glo Luminescent Cell Viability Assay (Promega). Metabolic activity was assessed following manufacturer's instructions. The CellTiter-Glo reagent was mixed with the cell pellets and remaining supernatant, and transferred to a white, opaque 96-well plate. Luminescence was measured on all wavelengths on a Spectramax iD3 plate reader (Molecular Devices) using an integration time of 500 ms. Percent viability was calculated relative to the control condition of moDCs treated with LPS.
Statistical Analyses. […] For each tested condition, cells from each donor were plated to be tested in triplicate.

Compound: CCCCCCCCCCCCCCCCCCCCCC(=O)OC[C@@H](O)COP(=O)([O-])OCC[N+](C)(C)C [22:0 LYSO PC, 1-behenoyl-2-hydroxy-sn-glycero-3-phosphocholine]
- CD40 expression (in words) ([1]; R848 + 41 uM lipid in 5% KP407, cDC1 and cDC2): strongly enhanced
- MHC class I expression (in words) ([1]; R848 + lipid vs R848 alone): enhanced MHC class I expression on both cDC1 and cDC2 subsets
- CCR7 expression (in words) ([1]; cDC1, R848 + lipid in KP407 formulation): increased their CCR7 expression significantly compared to R848 alone
- IL-1β secretion ([2]; Table 1-7, 10 donors): 1.1 pg/mL
- IL-1β secretion ([2]; Table 1-8): 1.0 pg/mL
- IL-1β secretion (in words) [3]: comparable or higher levels of IL-1β compared to every other stimuli tested; also recorded: hyperactivated to a greater extent
- viability at 2 days, 20 μM ([4]; Table 1-7, 10 donors): 120%
- viability at 2 days, 20 μM ([4]; Table 1-8): 120%
- moDC viability (in words) ([5]; 10.3 μM lipid + LPS): retained high viability
- Relative Viability (%) ± SD ([5]; 10.3 μM lipid + LPS 1 μg/mL, 2 days, relative to LPS-treated moDCs, Table 1-5): 89.1%
- moDC viability (in words) ([5]; 20.6 μM lipid + LPS): reduced cell viability somewhat
